Test results taken from ChEMBL document CHEMBL1126097 (J Med Chem, 1992).

Key:
[1] = target: 5-hydroxytryptamine receptor 1B (Homo sapiens, UniProt P28222); assay: Binding affinity against 5-hydroxytryptamine 1B receptor
[2] = target: T1, Serotonin 2 (5-HT2) receptor (Rattus norvegicus, UniProt P30994+P08909+P14842); assay: Binding affinity against 5-hydroxytryptamine 2 receptor using [3H]ket as radioligand.; type: protein assay
[3] = target: T1, Serotonin 2 (5-HT2) receptor; assay: Binding affinity against 5-hydroxytryptamine 2 receptor using [125I]DOI as radioligand.; type: protein assay
[4] = target: T2, 5-hydroxytryptamine receptor 2C (Rattus norvegicus, UniProt P08909); assay: Binding affinity against 5-hydroxytryptamine 1C receptor
T2 sequence (P08909 whole entry): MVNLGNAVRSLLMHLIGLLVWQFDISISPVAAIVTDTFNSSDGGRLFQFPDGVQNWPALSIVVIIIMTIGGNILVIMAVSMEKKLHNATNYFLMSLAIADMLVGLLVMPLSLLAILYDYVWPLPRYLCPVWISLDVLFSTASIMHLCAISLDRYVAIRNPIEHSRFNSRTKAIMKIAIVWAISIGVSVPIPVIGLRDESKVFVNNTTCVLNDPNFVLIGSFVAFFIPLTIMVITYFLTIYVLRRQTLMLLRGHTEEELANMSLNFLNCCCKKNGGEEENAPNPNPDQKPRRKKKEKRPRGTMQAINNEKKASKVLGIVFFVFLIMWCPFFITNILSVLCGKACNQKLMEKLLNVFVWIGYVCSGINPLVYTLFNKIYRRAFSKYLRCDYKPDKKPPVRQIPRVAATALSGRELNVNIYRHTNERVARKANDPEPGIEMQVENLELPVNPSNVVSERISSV

[5] = target: T3, 5-hydroxytryptamine receptor 1D (Cavia porcellus, UniProt Q60484); assay: Binding affinity against 5-hydroxytryptamine 1D receptor
T3 sequence (Q60484 whole entry): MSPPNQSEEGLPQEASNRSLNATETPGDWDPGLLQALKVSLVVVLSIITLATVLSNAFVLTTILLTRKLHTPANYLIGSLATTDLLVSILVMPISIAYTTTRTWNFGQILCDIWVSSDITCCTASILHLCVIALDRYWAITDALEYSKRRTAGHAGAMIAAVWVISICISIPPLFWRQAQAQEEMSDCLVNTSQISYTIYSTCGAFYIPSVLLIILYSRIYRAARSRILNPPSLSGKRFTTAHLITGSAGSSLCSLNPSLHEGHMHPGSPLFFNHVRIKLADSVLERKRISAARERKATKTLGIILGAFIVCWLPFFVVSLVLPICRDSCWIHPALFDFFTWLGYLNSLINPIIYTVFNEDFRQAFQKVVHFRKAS

[6] = target: T3, 5-hydroxytryptamine receptor 1D; assay: Effect on forskolin stimulated adenylate cyclase activity at 5-HT1D receptor of guinea pig substantia nigra.; type: functional

Sequence of 5-hydroxytryptamine receptor 1B (P28222 whole entry): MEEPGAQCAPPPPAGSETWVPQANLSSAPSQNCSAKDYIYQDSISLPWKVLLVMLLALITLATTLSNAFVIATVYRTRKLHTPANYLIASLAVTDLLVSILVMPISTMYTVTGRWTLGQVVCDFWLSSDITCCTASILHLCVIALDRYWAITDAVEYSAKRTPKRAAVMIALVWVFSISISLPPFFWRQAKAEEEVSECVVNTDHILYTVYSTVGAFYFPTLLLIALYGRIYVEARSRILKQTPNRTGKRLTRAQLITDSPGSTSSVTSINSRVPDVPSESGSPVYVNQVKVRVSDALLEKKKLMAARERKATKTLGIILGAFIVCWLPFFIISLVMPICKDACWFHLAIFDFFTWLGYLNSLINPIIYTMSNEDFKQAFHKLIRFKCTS

SMILES | IC50 [1] | IC50 [2] | IC50 [3] | IC50 [4] | IC50 [5] | EC50 [6]
COc1ccc2[nH]cc(C[C@@H]3CCCN3C)c2c1 | 5800 nM | > 8400 nM | 680 nM | 1200 nM | 420 nM | 
COc1ccc2[nH]cc(C[C@H]3CCCN3C)c2c1 | 830 nM | 730 nM | 17 nM | 33 nM | 24 nM | 43 nM
COc1ccc2[nH]cc(CCN(C)C)c2c1 [MEBUFOTENIN] |  |  |  |  | 49 nM | 
NCCc1c[nH]c2ccc(O)cc12 [SEROTONIN] |  |  |  |  | 3 nM | 5.2 nM
